Assay results reported in patent US11969002B2, “Savoury and mouthfulness taste enhancers” (LUCTA, S.A., priority 2018, dated 2024).

Tested on: kokumi and/or umami taste
Test: Sensory test: taste threshold in model broth (duo-trio test, sensory panel)
Assay type: in vivo
Conditions: for taste quality with the savoury taste threshold in model broth: descriptor in brackets after the threshold value; for minimal effective concentration: duo-trio-test ISO 10399:2017, model broth as constant blank, successive 1:2 dilutions in model broth, panel value averaged over three sessions, read-out: savoury taste threshold in model broth
Description: This sensory test allowed evaluating the capacity of the compounds of formula (IA), (IB), (IC), (ID), (IE), (IF), (IG), (IH) and (IJ) as defined above to enhance taste; particularly kokumi and/or umami taste. This test allowed measuring the taste threshold of the mixtures comprising an amount from 86% to 99% by weight measured by quantitative proton-NMR of a compound of formula (IA), (IB), (IC), (ID), (IE), (IF), (IG), (IH) and (IJ) in model broth. The “taste threshold” refers to the minimum taste stimulus needed to detect the presence of a compound of formula (IA), (IB), (IC), (ID), (IE), (IF), (IG), (IH) and (IJ) of the present invention. The lower the taste threshold, the greater the capacity as enhancer; particularly greater the capacity as kokumi and/or umami enhancer.
Samples • Diluted samples of the mixtures comprising a compound of formula (IA), (IB), (IC), (ID), (IE), (IF), (IG) and (IJ) in an amount from 86% to 99% by weight measured by quantitative proton-NMR with model broth. • Model broth as constant […]. • Diluted samples of comparative samples with model broth: • Comparative compound 1: 5-(aminomethyl)-2-methylpyrimidin-4-amine (Berkshire, United Kingdom) • Comparative compound 2: (4-amino-2-methylpyrimidin-5-yl)methanol (Carbosynth-Berkshire, United Kingdom) • Comparative compound 3: Thiamine (Sigma-Aldrich, Steinheim, Germany)
Model broth: The model broth comprises the following composition: 1.9 g/L of sodium Sodium chloride (Sigma Aldrich, Steinheim, Germany); 1.9 g/L of mono sodium L-glutatmate (Merck, Darmastadt, Germany); 6.4 g/L of Maltodextrin (Sigma Aldrich, Steinheim, Germany); and 2.1 g/L yeast extract (Gistex GSX II, DSM Food specialities Savoury Ingredients; Delft, Netherlands). The model broth is prepared by mixing the ingrediets under agitation in an ultrasonic bath.
Diluted samples of the mixtures comprising a compound of formula (IA), (IB), (IC), (ID), (IE), (IF), (IG), (IH) and (IJ) in an amount from 86% to 99% by weight measured by quantitative proton-NMR of the present invention: The pH value of each individual mixture comprising an amount from 86% to 99% by weight measured by quantitative proton-NMR of a compound of formula (IA), (IB), (IC), (ID), (IE), (IF), (IG), (IH) and (IJ) was adjusted to 5.4 by the addition of the appropriate amount of formic acid. Each individual pH adjusted mixture thus obtained was diluted 1:2 successively with the model broth to obtain diluted solutions of the mixture comprising a compound of formula formula (IA), (IB), (IC), (ID), (IE), (IF), (IG), (IH) and (IJ) in a concentration from 10 μmol/L to 1000 μmol/L measured by quantitative proton-NMR.
Diluted samples of the comparative compounds 1-3. A mixture of each individual comparative compound 1-3 with model broth was prepared by successively dilution 1:2 of each individual comparative compound with model broth to obtain the diluted comparative solutions having a concentration from 10 μmol/L to 1000 μmol/L measured by quantitative proton-NMR of the comparative compound.
The diluted solutions of the present invention and the comparative solutions falling outside the scope of protection of the present invention obtained above were presented to the panelists with increasing concentrations of the tested solutions by means of the duo-trio-test according to ISO 10399:2017; using the model broth as constant blank. The panelists were asked to mark the differing samples.
The taste threshold is calculated by means of the geometric mean. The geometric mean of the last and the second last concentration was calculated and taken as the individual threshold. The threshold value of the sensory panel was approximated by averaging the threshold values of the individuals in three independent sessions. Values between individuals and separate sessions differed not more than two dilution steps (cf. Lawless, Harry T. “Sensory Evaluation of Food”. Springer, 2nd edition, 2010, pp. 125-145)

SMILES | taste quality with the savoury taste threshold in model broth | minimal effective concentration
CC(=O)C(CCO)SCc1cnc(C)nc1N (single isomer, unassigned) [Mixture comprising (IB), 3-(((4-amino-2-methylpyrimidin-5-yl)methyl)thio)-5-hydroxy-pentan-2-one] | kokumi | 40 µM
Cc1ncc(CSCc2ccco2)c(N)n1 (single isomer, unassigned) [Mixture comprising (IG), 5-(((furan-2-ylmethyl)thio)methyl)-2-methylpyrimidin-4-amine] | kokumi | 120 µM
Cc1ncc(CS)c(N)n1 (single isomer, unassigned) [Mixture comprising (IJ), (4-amino-2-methylpyrimidin-5-yl)methanethiol] | kokumi | 80 µM
Cc1ncc(CSc2ccoc2C)c(N)n1 (single isomer, unassigned) [Mixture comprising (IF), 2-methyl-5-(((2-methylfuran-3-yl)thio)methyl)pyrimidin-4-amine] | kokumi | 50 µM
Cc1ncc(C[n+]2csc(CCO)c2C)c(N)n1 [Comparative compound 3, Thiamine, reference compound] | – | 1200 µM
CSCc1cnc(C)nc1N (single isomer, unassigned) [Mixture comprising (IH), 2-methyl-5-((methylthio)methyl)pyrimidin-4-amine] | kokumi | 70 µM
Cc1ncc(CO)c(N)n1 [Comparative compound 2, (4-amino-2-methylpyrimidin-5-yl)methanol, reference compound] | kokumi | 700 µM
Cc1ncc(CN)c(N)n1 [Comparative compound 1, 5-(aminomethyl)-2-methylpyrimidin-4-amine, reference compound] | – | > 1100 µM
Cc1ncc(CSC[C@H](N)C(=O)O)c(N)n1 (single isomer, unassigned) [Mixture comprising (IA), S-((4-amino-2-methylpyrimidin-5-yl)methyl)-L-cysteine] | kokumi | 120 µM
CCC(SCc1cnc(C)nc1N)C(C)=O (single isomer, unassigned) [Mixture comprising (IE), 3-(((4-amino-2-methylpyrimidin-5-yl)methyl)thio)pentan-2-one] | kokumi | 35 µM
Cc1ncc(CSCC2NC(=O)CNC2=O)c(N)n1 (single isomer, unassigned) [Mixture comprising (ID), 3-((((4-amino-2-methylpyrimidin-5-yl)methyl)thio)methyl)piperazine-2,5-dione] | kokumi | 255 µM
Cc1ncc(CSCC(N)C(=O)NCC(=O)O)c(N)n1 (single isomer, unassigned) [Mixture comprising (IC), S-((4-amino-2-methylpyrimidin-5-yl)methyl)cysteinylglycine] | kokumi | 880 µM
